Several values for one entry are separate records, joined by “and”; a condition that tells them apart may be missing. Identical values can stand only once. Marks after values point to notes of the source that are not given here.
How the values were obtained:
[1] = tested on: Caco-2 cell monolayer; conditions: for ER (efflux ratio, Papp(BL→AP)/Papp(AP→BL)) / Papp (AP→BL) / Papp (BL→AP): constituent of DS 100 μg/mL, 180 min; for Papp (AP→BL) / Papp (BL→AP): from UPLC-ESI-MS/MS peak areas
[2] = in vitro; conditions: human, Caco-2
[3] = tested on: Caco-2 cell monolayer; conditions: literature report; ref Chen et al., 2021; cited from earlier work
[4] = tested on: Caco-2 cell monolayer; experiment: Phenol red flux and apparent permeability across Caco-2 cell monolayer; format: in vitro ADME, human; conditions: AP→BL, 60 min, 5 μg/mL phenol red

Papp (AP→BL) [1]	Papp A→B at 180 min, 100 μg/mL [2]	Papp B→A at 180 min, 100 μg/mL [2]	Molecule	also measured
3.05 10^−6 cm/s	–	–	5,2′-Dihydroxy-7,8-dimethoxyflavone glycoside	ER (efflux ratio, Papp(BL→AP)/Papp(AP→BL)) [1]: 2.29; Papp (BL→AP) [1]: 6.97 10^−6 cm/s
–	3.24 ×10⁻⁶ cm/s	23.1 ×10⁻⁶ cm/s	COc1cc(-c2oc3cc(O)c(OC)c(O)c3c(=O)c2OC)cc(OC)c1O [5,7,4′-Trihydroxy-3,6,3′,5′-tetramethoxyflavone]	efflux ratio at 180 min, 100 μg/mL [2]: 7.13; Differential metabolite TSA vs. TSB ([1]; VIP ≥ 1, p < 0.05, fold change >2.0 or < 0.5): upregulated
20.87 10^−6 cm/s	–	2.81 ×10⁻⁶ cm/s	COc1ccc2c(c1)OCC(=Cc1cccnc1)C2=O [7-Methoxy-3-[1-(3-pyridyl)methylidene]-4-chromanone]	efflux ratio at 180 min, 100 μg/mL [2]: 0.13
–	5.37 ×10⁻⁶ cm/s	25.2 ×10⁻⁶ cm/s	COc1cc(C[C@H]2C(=O)OC[C@@H]2Cc2ccc(OC)c(OC)c2)ccc1O [Arctigenin]	efflux ratio at 180 min, 100 μg/mL [2]: 4.69
–	0.78 ×10⁻⁶ cm/s	4.26 ×10⁻⁶ cm/s	O=c1c(O[C@@H]2O[C@H](CO)[C@@H](O)[C@H](O)[C@H]2O)c(-c2ccc(O)cc2)oc2cc(O)cc(O)c12 [Astragalin]	–
–	3.24 ×10⁻⁶ cm/s	18.3 ×10⁻⁶ cm/s	COc1cc([C@@H]2Oc3c(OC)cc(CCCO)cc3[C@H]2CO)ccc1O [Dihydrodehydrodiconiferyl alcohol]	–
–	2.17 ×10⁻⁶ cm/s	17.3 ×10⁻⁶ cm/s	COc1ccc(-c2cc(=O)c3c(O)c(OC)c(OC)cc3o2)cc1O [Eupatorin]	–
17.37 10^−6 cm/s	–	–	COc1cc(/C=C/C(=O)O)ccc1O [Ferulic acid]	Mode of translocation [3]: active transport; ER (efflux ratio, Papp(BL→AP)/Papp(AP→BL)) [1]: 2.25; Papp (BL→AP) [1]: 39.16 10^−6 cm/s
24.51 10^−6 cm/s	–	49.5 ×10⁻⁶ cm/s	COc1ccc(/C=C/C(=O)O)cc1O [Isoferulic acid]	–
–	3.5 ×10⁻⁶ cm/s	23.2 ×10⁻⁶ cm/s	COc1cc(O)c(CC=C(C)C)c2c1C(=O)CC(c1ccc(O)cc1)O2 (stereo not drawn) [Isoxanthohumol]	Mode of translocation [3]: active transport
–	–	–	O=S1(=O)OC(c2ccc(O)cc2)(c2ccc(O)cc2)c2ccccc21 [Phenol red]	Phenol red flux QBL ([4]; cell culture time 3 days): 4.18 ± 0.43^a μg; Phenol red flux QBL ([4]; cell culture time 6 days): 1.94 ± 0.70^b μg; Phenol red flux QBL ([4]; cell culture time 9 days): 1.36 ± 0.44^bc μg; Phenol red flux QBL ([4]; cell culture time 12 days): 0.88 ± 0.15^cd μg; Phenol red flux QBL ([4]; cell culture time 15 days): 0.49 ± 0.21 μg and 0.49 ± 0.21^d μg; Phenol red flux QBL ([4]; cell culture time 18 days): 0.40 ± 0.09^d μg; Phenol red flux QBL ([4]; cell culture time 21 days): 0.37 ± 0.07^d μg
–	8.89 ×10⁻⁶ cm/s	19.4 ×10⁻⁶ cm/s	CC(=O)Oc1ccccc1 [Phenyl acetate]	–
–	1.63 ×10⁻⁶ cm/s	9.89 ×10⁻⁶ cm/s	O=c1c(-c2ccc(O[C@@H]3O[C@H](CO)[C@@H](O)[C@H](O)[C@H]3O)cc2)coc2cc(O)cc(O)c12 [Sophoricoside]	–

From publication PMC11833358 (Food Chemistry: X, 2025)
